SMILES	melting point
O=C(Nc1ccc2c(c1)CCN(Cc1ccccc1)C2)c1ccccc1-c1ccc(C(F)(F)F)cc1	230 to 232 °C
O=C(CCCCCl)c1cc2c(c([N+](=O)[O-])c1)OCC2	91 to 92 °C
Cc1nc[nH]c1CSCCN=C(NC#N)NCCCCCCCN	84 to 87 °C
CC(=O)Nc1cc(Cl)c(Cl)cc1NC(=O)Nc1cc(C(F)(F)F)ccc1Cl	262 to 264 °C
CCCOc1cccc2cc(-c3ccc4c(c3)C=C(C(=O)Nc3ccc(CN(C)C5CCOCC5)cc3)CCS4(=O)=O)oc12	246 to 248 °C
O=[N+]([O-])c1cccc(CNc2nnn[nH]2)c1	208 to 210 °C
CCCCCn1c2ccccc2c2cc(C(=O)OCC)ncc21	92 to 93 °C
COCCNC(=O)c1cc2c(ccc3cnn(C[C@H](C)N)c32)o1	75 to 76 °C
CSc1sc(S(C)(=O)=O)cc1C#N	126 to 128 °C
CCOC(=O)c1c(C)nn(C)c1CSC(=N)N	175 to 180 °C
O=C(O)c1ccc2c(c1)COCC2	140 to 142 °C
CN(CC(=O)N[C@@H](CCC(N)=O)C(N)=O)C(=O)OCc1ccccc1	186 to 196 °C
N#Cc1c(N2CCCCC2)c(C(=O)OCCO)c2ccccn2c1=O	140 to 141 °C
CCCCCCC#CCC#CCC#CCC#CCCCC(=O)NO	85 to 88 °C
COc1cc2c(c(Cl)c1Cl)SC(C1CCCCC1)C2O (stereo not drawn)	166 to 167 °C
CCOC(=O)C1(CC(=O)O)N=C(c2ccc(Cl)cc2)c2c(sc(C)c2C)-n2c(C)nnc21 (stereo not drawn)	198 to 202 °C
Clc1cc(Cl)cc(C2=NOCCS2)c1	88 to 89 °C
CNC(=S)NCCS(=O)Cc1nc[nH]c1C (stereo not drawn)	139 to 140 °C
CCOC(=O)c1ncc2[nH]c3ccc(C4COC(O)C4)cc3c2c1C (stereo not drawn)	177 to 180 °C
COc1ccc2oc(N)c(C(N)=O)c(=O)c2c1	270 °C
CCCCCCN1C(=O)C(=CC(=O)O)SC1=Nc1ccc(Cl)c(Cl)c1	156 to 157 °C
CS(=O)(=O)c1ccc(-c2cnn(-c3ccc(F)cc3)c(=O)c2-c2cccc(F)c2)cc1	199 to 201 °C
Cc1nc2ccccn2c(=O)c1CCN1CCC2C(C1)c1ccccc1N2Cc1ccccc1 (stereo not drawn)	145 °C

SMILES	melting point
Nc1nc2c(s1)CCCc1ccc(F)cc1-2	270 °C
C=C(Cl)Cc1c(Cl)nc(NC=O)nc1Cl	113 to 115 °C
COc1ccc(N2CCN(c3c(C)c(C)c4c(c3C)CC(C)(CN3CCOCC3)O4)CC2)cc1 (stereo not drawn)	137 to 142 °C
CNC1COc2ccc3[nH]c(C(F)(F)F)nc3c2O1 (stereo not drawn)	199 to 201 °C
CCCCNC(=O)N(C(=O)NCCCC)c1c(OC(=O)N(CC)CC)nc(C)c2cc(OC)c(OC)cc12	138 to 140 °C
CCCN(C)C1CCc2c(cccc2NC(C)=O)C1 (stereo not drawn)	78 °C
CCN1CCc2ccc(Nc3ncc(Cl)c(NCCNS(C)(=O)=O)n3)cc2CC1	146 °C
Cc1[nH]c(C(C)(C)C)nc1C=O	196 to 198 °C
CCCN(CCC)C(=O)C(CCC(=O)NC)NC(=O)OCc1ccccc1 (stereo not drawn)	75 to 76 °C
COc1nc(C)c(C(C)O)cc1NC(=O)N1CCN(c2cc(C)cc(C)c2)CC1 (stereo not drawn)	153 to 154 °C
CCOCc1nc2c(N)nc3cc(Br)cnc3c2n1CCCON=C(C)C	128 to 130 °C
O=C(OCC1CC1)c1ncn2c1[C@@H]1CCCN1C(=O)c1c(Cl)cccc1-2	195 to 196 °C
CCOC(=O)CN(CP(=O)(ONNc1ccccc1)ONNc1ccccc1)C(=O)C(F)(F)F	113 to 116 °C
CC(C=CCC(C)(C)O)C1CCC2C3=CC=C4CC(O)CCC4(C)C3CCC21C (stereo not drawn)	198 to 200 °C
COC(=O)c1ccc2c(c1)C(=O)NC(C(Cl)(Cl)Cl)O2 (stereo not drawn)	218 to 220 °C
Fc1ccc(Nc2nc(N/N=C/c3cccc4ccccc34)nc(N3CCOCC3)n2)cc1	220 °C
CN(C)C1CCN(C(=O)N2CCC(c3[nH]nc4c3C(=O)c3c(NC(=O)NN5CCOCC5)cccc3-4)CC2)CC1	172 to 174 °C
CC12CC(=O)C3C(CCC4CC(=O)CCC43C)C1CCC2C(=O)CO (stereo not drawn)	164 to 170 °C
CN1CC=C(c2c[nH]c3ccc(O)cc23)CC1	182 to 185 °C
CC1=NC(=CC(=CN(C)C)c2ccc(C)cc2[N+](=O)[O-])C(=O)O1	200 to 201 °C
CCCCCCCCCCCCCCCCCCOc1cccc(NCC(=O)O)c1	92 °C
CCCCCCCCCCOC(=O)CN(CP(=O)(ONC1CCCCC1)ONC1CCCCC1)C(=O)C(F)(F)F	79.5 to 82.5 °C

More lines, now with the values ahead:

melting point	SMILES
123 to 125 °C	N#CC(NC(=O)c1ccnc(Cl)c1)c1cccs1 (stereo not drawn)
312 °C	Cc1cc(-c2ccc(Cl)cc2)nc(-n2cnc(-c3ccc(S(N)(=O)=O)cc3)c2)n1
148 to 149 °C	N/C(=C1/Sc2ccccc2C1=O)c1ccccc1C(F)(F)F
77 to 78 °C	CC(C)(C)CNC(=O)Oc1ccccc1
180 to 181 °C	COc1ccc(S(=O)(=O)N2CCc3cccc(-c4ccc(F)c(F)c4)c32)cc1
158 to 160 °C	CCc1ccc(COc2cccc3c2CN(C2CCC(=O)NC2=O)C3=O)cc1 (stereo not drawn)
121 to 122 °C	COc1cc(SC#N)cc(C#N)c1N
186 to 192 °C	Nc1nc2nc(SCc3ccccc3)ncc2cc1Oc1ccc(F)cc1
140 to 141 °C	CC#COc1ccc2c(C)cc(=O)oc2c1
248 to 251 °C	Cc1cccc(C(=O)NC(C)C)c1NC(=O)c1cnc(C(F)(F)F)nc1C
117 to 118 °C	CSCC(=O)[C@H](Cc1ccccc1)NC(=O)[C@H](CC(C)C)NC(=O)OC(C)(C)C
168 to 170 °C	Cc1cccc(C(=O)Nc2ccc(C(=O)N3Cc4cccn4Cc4ccccc43)cc2)c1C
225 to 226 °C	CCn1c(=O)c2c(nc(C=Cc3cccc(OC)c3O)n2C)n(CC)c1=O
146 to 150 °C	O=Cc1cccc(/C=C/c2ccc3ccc(Cl)cc3n2)c1
110 °C	O=C(CCC#Cc1cccc(CF)n1)Nc1ccc(F)cc1
91 to 97 °C	CCOC(=O)CNc1nc2ccccc2s1
109 to 111 °C	CCOC(=O)Cn1c(-c2ccccn2)nc2cccnc21
153 to 157 °C	CCOC(=O)Cc1c(-c2cccnc2)c2cc(CN3CCN(c4ccccc4)CC3)c(Cl)cc2oc1=O
208 to 210 °C	COCCS(=O)(=O)c1ccc(CCN2CC=C(c3c[nH]c(-c4ccc(F)c(Cl)c4)c3-c3ccncc3)CC2)cc1
71 to 72 °C	C=CCOc1cc(C(=O)OCC)nc2ccccc12

melting point	SMILES
187 to 188 °C	CCc1cnc2c(NC(=O)c3c(Cl)cccc3Cl)cccc2c1-n1ccnc1
110 to 113 °C	COc1ccc(N2CCN(c3c(C)c(C)c4c(c3C)C(c3ccoc3)C(C)(C)O4)CC2)cc1 (stereo not drawn)
176 to 177 °C	CCOCCc1c(-c2ccc(OC)cc2)nc(N)n2ncnc12
306 to 308 °C	CCCC(=O)Nc1cnc2cc(F)ccc2c1O
238 to 240 °C	CC1=C(C(N)=O)C(c2cccc([N+](=O)[O-])c2)n2ccnc2N1 (stereo not drawn)
170 to 174 °C	Cn1c(=O)c(-c2ccc(Cl)cc2Cl)cc2c3cc(-c4cnco4)ccc3n(C)c21
202 to 203 °C	Cc1cccc2c1nc(-c1c(F)cccc1F)n2Cc1c(Cl)cccc1Cl
86 °C	CC(C)OC(=O)C(=C1SC=CS1)c1ccc(F)cc1
214 to 215 °C	COc1c(C#N)cc(-c2c3ccccc3cc3sc4ccccc4c23)cc1C#N
170 °C	OC(Cn1cncn1)(c1ccc(Oc2ccc(Cl)cc2)cc1Cl)C1CC1 (stereo not drawn)
75 to 77 °C	COC(=O)c1cc(C=O)cnc1C(=O)OC
152 to 157 °C	CN1CCN(c2ccc(Nc3ncc4ccc(Nc5ccccc5)n4n3)cc2)CC1
168 to 171 °C	O=C1CN(S(=O)(=O)CC(Cc2ccccc2)C(=O)O)CCN1 (stereo not drawn)
147 to 148 °C	O=C(NCC(=O)c1cccs1)c1ccc(F)cc1
87 to 88 °C	C=CCc1cc(C(=O)OC)ccc1OCCCCCOc1ccc2c(=O)cc(C(=O)OC)oc2c1CCC
115 to 117 °C	CC(C)(Oc1ccc(C#N)cc1)C(O)=Cc1ccncn1
119 °C	CCOC(=O)C(N=C(c1cc(Cl)ccc1N)c1ccccc1F)C(=O)OCC
180 to 182 °C	ON=Cc1ccncc1
181 to 182 °C	Cn1nc(-c2ccc(F)cc2)c(-c2ccc(S(C)(=O)=O)cc2)cc1=O
378 °C	COc1ccc(-c2sc(Nc3cnccn3)nc2C)cc1S(N)(=O)=O

melting point	SMILES
167 to 169 °C	Cc1cc(C(=O)C(=O)O)ccc1OCCOc1ccc2ccccc2c1
154 to 156 °C	O=C(O)CCC(=O)c1ccc(-c2ccc(Cl)c(Cl)c2)cc1
201 to 202 °C	Nc1ccc(Oc2ccc3c(c2)OCC(=O)N3)cc1
48 °C	CCCCCCOc1ccc2cc([C@H]3CC[C@H](CCCCCC)CC3)ccc2c1
101 °C	COCCOc1ccc(CCC(=O)N(CCOC)S(N)(=O)=O)c(Oc2ncc(C(F)(F)F)cc2Cl)c1
178 to 192 °C	COc1ccc(OC)c(CN2CCc3cc(O)ccc3C2)c1
159 to 160 °C	CCCCC(=N)NC(=O)Nc1ccc(C)cc1
235 to 237 °C	O=C(Nc1ccc(-n2nc(C(F)(F)F)cc2C2CC2)c(F)c1)c1ccc2nn[nH]c2c1
89 to 91 °C	CCN(C(=O)C(C)Oc1ccc(Oc2ncc(Cl)cc2Cl)cc1)C(CS)C(=O)O (stereo not drawn)
204 to 206 °C	CCn1ccnc1CNC(=O)c1[nH]c2ccc(Cl)cc2c1S(=O)(=O)c1ccccc1
193 °C	COC(=O)c1nn(-c2cccc(NC(C)=O)c2)c(=O)n(Cc2ccc(Cl)cc2)c1=O
64 °C	CCCc1nsc(Oc2cccc(NC(=O)OC(C)C)c2)n1
244 to 245 °C	Cc1cscc1-c1cccc2c1nnn2-c1ccnc(NC2CCN(S(C)(=O)=O)CC2)n1
174 to 175 °C	CCOC(=O)c1ccc(-c2nnc(-c3ccccc3N)o2)cc1
180 °C	CCCCc1nnc2ccccc2c1O
204 to 208 °C	CC1(C)Oc2ccc(C#N)cc2[C@@H](NC(=O)Nc2cccc(-c3nnn[nH]3)c2)[C@@H]1O
88 to 90 °C	OCCCCOc1cccc(/C=C/c2nc3ccccc3s2)c1
> 300 °C	COC(=O)c1ccc2c(c1)C(=O)C(C)C(c1ccccc1)=N2 (stereo not drawn)
